Source: the CheMixHub viscosity set
± gives the uncertainty stated by the source.

Test: xn = mol fraction of the nth substance listed

Compound: Ic1ccccc1 + CCCCCO
- viscosity (293.15 K, 101.33 kPa, x2 = 0.1): 1.665 ± 0.039 mPa·s
- viscosity (293.15 K, 101.33 kPa, x2 = 0.2): 1.694 ± 0.04 mPa·s
- viscosity (293.15 K, 101.33 kPa, x2 = 0.25): 1.709 ± 0.04 mPa·s
- viscosity (293.15 K, 101.33 kPa, x2 = 0.3834): 1.864 ± 0.043 mPa·s
- viscosity (293.15 K, 101.33 kPa, x2 = 0.4289): 1.94 ± 0.045 mPa·s
- viscosity (293.15 K, 101.33 kPa, x2 = 0.5101): 2.098 ± 0.048 mPa·s
- viscosity (293.15 K, 101.33 kPa, x2 = 0.7761): 2.915 ± 0.066 mPa·s
- viscosity (293.15 K, 101.33 kPa, x2 = 0.8055): 3.043 ± 0.068 mPa·s
- viscosity (293.15 K, 101.33 kPa, x2 = 0.8184): 3.1 ± 0.069 mPa·s
- viscosity (293.15 K, 101.33 kPa, x2 = 0.8554): 3.273 ± 0.073 mPa·s
- viscosity (293.15 K, 101.33 kPa, x2 = 0.9419): 3.7 ± 0.082 mPa·s
- viscosity (293.15 K, 101.33 kPa, x2 = 0.975): 3.867 ± 0.085 mPa·s

Compound: COc1ccccc1O + Nc1ccccc1
- viscosity (303.15 K, 101 kPa, x2 = 0.1): 4.74 ± 0.13 mPa·s
- viscosity (303.15 K, 101 kPa, x2 = 0.2): 4.9 ± 0.13 mPa·s
- viscosity (303.15 K, 101 kPa, x2 = 0.3): 5.11 ± 0.14 mPa·s
- viscosity (303.15 K, 101 kPa, x2 = 0.35): 5.15 ± 0.14 mPa·s
- viscosity (303.15 K, 101 kPa, x2 = 0.4): 5.23 ± 0.14 mPa·s
- viscosity (303.15 K, 101 kPa, x2 = 0.45): 5.12 ± 0.14 mPa·s
- viscosity (303.15 K, 101 kPa, x2 = 0.5): 5.09 ± 0.14 mPa·s
- viscosity (303.15 K, 101 kPa, x2 = 0.55): 4.94 ± 0.13 mPa·s
- viscosity (303.15 K, 101 kPa, x2 = 0.6): 4.86 ± 0.13 mPa·s
- viscosity (303.15 K, 101 kPa, x2 = 0.7): 4.58 ± 0.12 mPa·s
- viscosity (303.15 K, 101 kPa, x2 = 0.8): 4.23 ± 0.11 mPa·s
- viscosity (303.15 K, 101 kPa, x2 = 0.9): 3.61 ± 0.1 mPa·s

Compound: Brc1ccccc1 + O=[N+]([O-])c1ccccc1
- viscosity (298.15 K, 101 kPa, x2 = 0.117): 1.106 ± 0.009 mPa·s
- viscosity (298.15 K, 101 kPa, x2 = 0.225): 1.164 ± 0.01 mPa·s
- viscosity (298.15 K, 101 kPa, x2 = 0.345): 1.227 ± 0.01 mPa·s
- viscosity (298.15 K, 101 kPa, x2 = 0.464): 1.296 ± 0.011 mPa·s
- viscosity (298.15 K, 101 kPa, x2 = 0.554): 1.352 ± 0.011 mPa·s
- viscosity (298.15 K, 101 kPa, x2 = 0.676): 1.465 ± 0.012 mPa·s
- viscosity (298.15 K, 101 kPa, x2 = 0.79): 1.556 ± 0.013 mPa·s
- viscosity (298.15 K, 101 kPa, x2 = 0.887): 1.673 ± 0.014 mPa·s
- viscosity (303.15 K, 101 kPa, x2 = 0.117): 1.036 ± 0.009 mPa·s
- viscosity (303.15 K, 101 kPa, x2 = 0.225): 1.075 ± 0.009 mPa·s
- viscosity (303.15 K, 101 kPa, x2 = 0.345): 1.13 ± 0.01 mPa·s
- viscosity (303.15 K, 101 kPa, x2 = 0.464): 1.209 ± 0.01 mPa·s
- viscosity (303.15 K, 101 kPa, x2 = 0.554): 1.246 ± 0.011 mPa·s
- viscosity (303.15 K, 101 kPa, x2 = 0.676): 1.355 ± 0.011 mPa·s
- viscosity (303.15 K, 101 kPa, x2 = 0.79): 1.459 ± 0.012 mPa·s
- viscosity (303.15 K, 101 kPa, x2 = 0.887): 1.551 ± 0.013 mPa·s
- viscosity (308.15 K, 101 kPa, x2 = 0.117): 0.973 ± 0.008 mPa·s
- viscosity (308.15 K, 101 kPa, x2 = 0.225): 1.015 ± 0.009 mPa·s
- viscosity (308.15 K, 101 kPa, x2 = 0.345): 1.06 ± 0.009 mPa·s
- viscosity (308.15 K, 101 kPa, x2 = 0.464): 1.117 ± 0.01 mPa·s
- viscosity (308.15 K, 101 kPa, x2 = 0.554): 1.173 ± 0.01 mPa·s
- viscosity (308.15 K, 101 kPa, x2 = 0.676): 1.251 ± 0.011 mPa·s
- viscosity (308.15 K, 101 kPa, x2 = 0.79): 1.345 ± 0.011 mPa·s
- viscosity (308.15 K, 101 kPa, x2 = 0.887): 1.423 ± 0.012 mPa·s

Compound: C1COCCO1 + CC#N
- viscosity (298.15 K, 101 kPa, x2 = 0.1926): 0.9468 ± 0.024 mPa·s
- viscosity (298.15 K, 101 kPa, x2 = 0.3492): 0.772 ± 0.02 mPa·s
- viscosity (298.15 K, 101 kPa, x2 = 0.4791): 0.6349 ± 0.016 mPa·s
- viscosity (298.15 K, 101 kPa, x2 = 0.5886): 0.5315 ± 0.014 mPa·s
- viscosity (298.15 K, 101 kPa, x2 = 0.6822): 0.4573 ± 0.012 mPa·s
- viscosity (298.15 K, 101 kPa, x2 = 0.763): 0.4099 ± 0.011 mPa·s
- viscosity (298.15 K, 101 kPa, x2 = 0.8336): 0.3679 ± 0.0096 mPa·s
- viscosity (298.15 K, 101 kPa, x2 = 0.8957): 0.3482 ± 0.0091 mPa·s
- viscosity (298.15 K, 101 kPa, x2 = 0.9508): 0.3389 ± 0.0089 mPa·s
- viscosity (308.15 K, 101 kPa, x2 = 0.1926): 0.8244 ± 0.021 mPa·s
- viscosity (308.15 K, 101 kPa, x2 = 0.3492): 0.6862 ± 0.018 mPa·s
- viscosity (308.15 K, 101 kPa, x2 = 0.4791): 0.5802 ± 0.015 mPa·s
- viscosity (308.15 K, 101 kPa, x2 = 0.5886): 0.503 ± 0.013 mPa·s
- viscosity (308.15 K, 101 kPa, x2 = 0.6822): 0.4477 ± 0.012 mPa·s
- viscosity (308.15 K, 101 kPa, x2 = 0.763): 0.4079 ± 0.011 mPa·s
- viscosity (308.15 K, 101 kPa, x2 = 0.8336): 0.3775 ± 0.0098 mPa·s
- viscosity (308.15 K, 101 kPa, x2 = 0.8957): 0.3531 ± 0.0092 mPa·s
- viscosity (308.15 K, 101 kPa, x2 = 0.9508): 0.334 ± 0.0087 mPa·s
- viscosity (318.15 K, 101 kPa, x2 = 0.1926): 0.7189 ± 0.019 mPa·s
- viscosity (318.15 K, 101 kPa, x2 = 0.3492): 0.5994 ± 0.015 mPa·s
- viscosity (318.15 K, 101 kPa, x2 = 0.4791): 0.5014 ± 0.013 mPa·s
- viscosity (318.15 K, 101 kPa, x2 = 0.5886): 0.4305 ± 0.011 mPa·s
- viscosity (318.15 K, 101 kPa, x2 = 0.6822): 0.3854 ± 0.01 mPa·s
- viscosity (318.15 K, 101 kPa, x2 = 0.763): 0.3542 ± 0.0093 mPa·s
- viscosity (318.15 K, 101 kPa, x2 = 0.8336): 0.3354 ± 0.0088 mPa·s
- viscosity (318.15 K, 101 kPa, x2 = 0.8957): 0.3194 ± 0.0084 mPa·s
- viscosity (318.15 K, 101 kPa, x2 = 0.9508): 0.3076 ± 0.0081 mPa·s

Compound: Nc1cccc(Cl)c1Cl + COCCO
- viscosity (313.15 K, 101 kPa, x1 = 0.08697): 1.48 ± 0.03 mPa·s
- viscosity (313.15 K, 101 kPa, x1 = 0.1819): 1.74 ± 0.04 mPa·s
- viscosity (313.15 K, 101 kPa, x1 = 0.2858): 2.04 ± 0.04 mPa·s
- viscosity (313.15 K, 101 kPa, x1 = 0.4001): 2.33 ± 0.05 mPa·s
- viscosity (313.15 K, 101 kPa, x1 = 0.5264): 2.63 ± 0.06 mPa·s
- viscosity (313.15 K, 101 kPa, x1 = 0.6667): 2.96 ± 0.06 mPa·s
- viscosity (313.15 K, 101 kPa, x1 = 0.8236): 3.25 ± 0.07 mPa·s
